Laboratory results reported in US20260184675A1, “CHIRAL ISOMERIC SULFITE COMPOUND AND APPLICATION THEREOF” (Chengdu Hanova BioSciences Co., Ltd, priority 2024, published 2026).

Columns and labels:
[1] = tested on: pest eggs of Tetranychus cinnabarinus; assay: Effect on hatching of pest eggs of Tetranychus cinnabarinus, leaf disc method; assay type: in vivo; details: for Hatching rate (%): 7 days after insecticide delivery; for inhibitory effect on the hatching of pest eggs of Tetranychus cinnabarinus (in words): 1 ppm
In short: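 Adult female mites laid eggs on 2.0 cm Vicia faba leaf discs for up to 36 h; discs with counted eggs were dipped 10 s in compound solution or water, then kept moist. Hatched eggs were counted 7 days after treatment and control effect was calculated by formula.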

eggs of Aleyrodidae = assay: Effect on hatching of eggs of Aleyrodidae, leaf disc method; assay type: in vivo; details: 10 ppm; for Hatching rate (%), Replicate 1 / Hatching rate (%), Replicate 2 / Hatching rate (%), Replicate 3 / Number of hatched larvae 5 days after insecticide delivery, Replicate 1 / Number of hatched larvae 5 days after insecticide delivery, Replicate 2 / Number of hatched larvae 5 days after insecticide delivery, Replicate 3: Aleyrodidae eggs; for Hatching rate (%), Replicate 1 / Hatching rate (%), Replicate 2 / Hatching rate (%), Replicate 3: 5 days after delivery; for Number of hatched larvae 5 days after insecticide delivery, Replicate 1 / Number of hatched larvae 5 days after insecticide delivery, Replicate 2 / Number of hatched larvae 5 days after insecticide delivery, Replicate 3: leaf disc
In short: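 Leaf discs carrying Aleyrodidae eggs were first examined microscopically to record a baseline egg count. They were then dipped for 10 seconds in compound solution at 10 ppm or in clear water, taken out, and incubated with humidity maintained. Five days after delivery, the number of hatched larvae was recorded to assess hatching inhibition.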

[2] = tested on: eggs of Harmonia axyridis; assay: Effect on hatching of eggs of Harmonia axyridis, egg card immersion; assay type: in vivo; details: 100 ppm; for Number of hatched larvae 4 days after insecticide delivery, Replicate 1 / Number of hatched larvae 4 days after insecticide delivery, Replicate 2 / Number of hatched larvae 4 days after insecticide delivery, Replicate 3: Harmonia axyridis egg cards, immersed 30 seconds; for Hatching rate (%), Replicate 1 / Hatching rate (%), Replicate 2 / Hatching rate (%), Replicate 3: Harmonia axyridis eggs, 4 days after delivery
In short: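 Egg cards (~20 eggs each) dipped 30 s in 100 ppm insecticide, air dried and kept moist at 27° C; 5 cards per treatment, 3 replicates. Hatching assessed 4 days after treatment against pre-treatment egg counts, and control effect calculated by formula.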

Magnaporthe grisea = assay type: cell-based; details: 100 ppm; for Average antifungal rate (%) / Antifungal rate of Magnaporthe grisea (%), Replicate 1 / Antifungal rate of Magnaporthe grisea (%), Replicate 2 / Antifungal rate of Magnaporthe grisea (%), Replicate 3: 96-well plate; for Average antifungal rate (%): average of 3 replicates

| SMILES | Hatching rate (%) ([1]; 0.25 mg/L, Replicate 1) | Hatching rate (%) ([1]; 0.25 mg/L, Replicate 2) | Number of hatched larvae 7 days after insecticide delivery ([1]; 0.25 mg/L, Replicate 1) | Number of hatched larvae 7 days after insecticide delivery ([1]; 0.25 mg/L, Replicate 2) | Hatching rate (%) ([1]; 0.5 mg/L, Replicate 1) | Hatching rate (%) ([1]; 0.5 mg/L, Replicate 2) | Number of hatched larvae 7 days after insecticide delivery ([1]; 0.5 mg/L, Replicate 1) | Number of hatched larvae 7 days after insecticide delivery ([1]; 0.5 mg/L, Replicate 2) | Hatching rate (%) ([1]; 1 mg/L, Replicate 1) | Hatching rate (%) ([1]; 1 mg/L, Replicate 2) | Number of hatched larvae 7 days after insecticide delivery ([1]; 1 mg/L, Replicate 1) | Number of hatched larvae 7 days after insecticide delivery ([1]; 1 mg/L, Replicate 2) | inhibitory rate against Magnaporthe grisea (in words) (Magnaporthe grisea) | Average antifungal rate (%) (Magnaporthe grisea) | Antifungal rate of Magnaporthe grisea (%), Replicate 1 (Magnaporthe grisea) [%] | Antifungal rate of Magnaporthe grisea (%), Replicate 2 (Magnaporthe grisea) [%] | Antifungal rate of Magnaporthe grisea (%), Replicate 3 (Magnaporthe grisea) [%] | inhibitory effect on the hatching of pest eggs of Tetranychus cinnabarinus (in words) [1] | inhibitory activity on the hatching of eggs of Aleyrodidae (in words) (eggs of Aleyrodidae) | inhibitory activity on the hatching of eggs of Harmonia axyridis (in words) [2] | also measured |
| --- | --- | --- | --- | --- | --- | --- | --- | --- | --- | --- | --- | --- | --- | --- | --- | --- | --- | --- | --- | --- | --- |
| CC[C@@H](COS(=O)OCCF)Oc1ccc(Cl)cc1Cl (stereo partly drawn) [19′-(S,R)] | 68.49 | 69.23 | 23 | 20 | 35.09 | 32.79 | 37 | 41 | 0.00 | 1.85 | 68 | 53 | strong inhibitory rate | 86.23 | 86.44 | 85.97 | 86.28 | – | – | – | Hatching rate (%), Replicate 1 (eggs of Aleyrodidae; listed as 19′-(S, R)): 10.53%; Hatching rate (%), Replicate 2 (eggs of Aleyrodidae; listed as 19′-(S, R)): 10.24%; Hatching rate (%), Replicate 3 (eggs of Aleyrodidae; listed as 19′-(S, R)): 10.20%; Number of hatched larvae 5 days after insecticide delivery, Replicate 1 (eggs of Aleyrodidae; listed as 19′-(S, R)): 10; Number of hatched larvae 5 days after insecticide delivery, Replicate 2 (eggs of Aleyrodidae; listed as 19′-(S, R)): 13; Number of hatched larvae 5 days after insecticide delivery, Replicate 3 (eggs of Aleyrodidae; listed as 19′-(S, R)): 10; Number of hatched larvae 4 days after insecticide delivery, Replicate 1 ([2]; listed as 19′-(S, R)): 10; Number of hatched larvae 4 days after insecticide delivery, Replicate 2 ([2]; listed as 19′-(S, R)): 10; Number of hatched larvae 4 days after insecticide delivery, Replicate 3 ([2]; listed as 19′-(S, R)): 11; Hatching rate (%), Replicate 1 ([2]; listed as 19′-(S, R)): 10.42%; Hatching rate (%), Replicate 2 ([2]; listed as 19′-(S, R)): 9.35%; Hatching rate (%), Replicate 3 ([2]; listed as 19′-(S, R)): 9.82% |
| CC(C)(COS(=O)OCCF)Oc1ccc(Cl)cc1Cl (centres unmarked) [S-10′] | 42.11 | 43.77 | 44 | 37 | 7.95 | 6.12 | 81 | 46 | 0.00 | 0.00 | 59 | 84 | strong inhibitory rate | 99.31 | 100.03 | 99.64 | 98.27 | excellent inhibitory effects | strong inhibitory activities | strong inhibitory activities | Hatching rate (%), Replicate 1 (eggs of Aleyrodidae): 0.00%; Hatching rate (%), Replicate 2 (eggs of Aleyrodidae): 0.00%; Hatching rate (%), Replicate 3 (eggs of Aleyrodidae): 0.00%; Number of hatched larvae 5 days after insecticide delivery, Replicate 1 (eggs of Aleyrodidae): 0; Number of hatched larvae 5 days after insecticide delivery, Replicate 2 (eggs of Aleyrodidae): 0; Number of hatched larvae 5 days after insecticide delivery, Replicate 3 (eggs of Aleyrodidae): 0; Number of hatched larvae 4 days after insecticide delivery, Replicate 1 [2]: 0; Number of hatched larvae 4 days after insecticide delivery, Replicate 2 [2]: 0; Number of hatched larvae 4 days after insecticide delivery, Replicate 3 [2]: 0; Hatching rate (%), Replicate 1 [2]: 0.00%; Hatching rate (%), Replicate 2 [2]: 0.00%; Hatching rate (%), Replicate 3 [2]: 0.00% |
| C[C@@H](COS(=O)OCCF)Oc1ccc(Cl)cc1Cl (stereo partly drawn) [1-(S,R)] | 59.57 | 76.09 | 19 | 11 | 35.29 | 31.25 | 33 | 44 | 2.56 | 0.00 | 76 | 64 | strong inhibitory rate | 82.92 | 87.32 | 82.96 | 78.48 | – | – | – | Hatching rate (%), Replicate 1 (eggs of Aleyrodidae; listed as 1-(S, R)): 9.65%; Hatching rate (%), Replicate 2 (eggs of Aleyrodidae; listed as 1-(S, R)): 9.38%; Hatching rate (%), Replicate 3 (eggs of Aleyrodidae; listed as 1-(S, R)): 10.48%; Number of hatched larvae 5 days after insecticide delivery, Replicate 1 (eggs of Aleyrodidae; listed as 1-(S, R)): 11; Number of hatched larvae 5 days after insecticide delivery, Replicate 2 (eggs of Aleyrodidae; listed as 1-(S, R)): 12; Number of hatched larvae 5 days after insecticide delivery, Replicate 3 (eggs of Aleyrodidae; listed as 1-(S, R)): 11; Number of hatched larvae 4 days after insecticide delivery, Replicate 1 ([2]; listed as 1-(S, R)): 13; Number of hatched larvae 4 days after insecticide delivery, Replicate 2 ([2]; listed as 1-(S, R)): 14; Number of hatched larvae 4 days after insecticide delivery, Replicate 3 ([2]; listed as 1-(S, R)): 14; Hatching rate (%), Replicate 1 ([2]; listed as 1-(S, R)): 12.04%; Hatching rate (%), Replicate 2 ([2]; listed as 1-(S, R)): 14.14%; Hatching rate (%), Replicate 3 ([2]; listed as 1-(S, R)): 13.73% |
| C[C@@H](COS(=O)OCCF)Oc1ccc(Cl)cc1Cl (stereo partly drawn) [1-(S,S)] | 50.88 | 38.98 | 28 | 36 | 0.00 | 9.72 | 70 | 65 | 0.00 | 0.00 | 75 | 68 | strong inhibitory rate | 97.35 | 99.38 | 95.02 | 97.64 | excellent inhibitory effects | strong inhibitory activities | strong inhibitory activities | Hatching rate (%), Replicate 1 (eggs of Aleyrodidae; listed as 1-(S, S)): 0.00%; Hatching rate (%), Replicate 2 (eggs of Aleyrodidae; listed as 1-(S, S)): 0.00%; Hatching rate (%), Replicate 3 (eggs of Aleyrodidae; listed as 1-(S, S)): 0.00%; Number of hatched larvae 5 days after insecticide delivery, Replicate 1 (eggs of Aleyrodidae; listed as 1-(S, S)): 0; Number of hatched larvae 5 days after insecticide delivery, Replicate 2 (eggs of Aleyrodidae; listed as 1-(S, S)): 0; Number of hatched larvae 5 days after insecticide delivery, Replicate 3 (eggs of Aleyrodidae; listed as 1-(S, S)): 0; Number of hatched larvae 4 days after insecticide delivery, Replicate 1 ([2]; listed as 1-(S, S)): 0; Number of hatched larvae 4 days after insecticide delivery, Replicate 2 ([2]; listed as 1-(S, S)): 0; Number of hatched larvae 4 days after insecticide delivery, Replicate 3 ([2]; listed as 1-(S, S)): 0; Hatching rate (%), Replicate 1 ([2]; listed as 1-(S, S)): 0.00%; Hatching rate (%), Replicate 2 ([2]; listed as 1-(S, S)): 0.00%; Hatching rate (%), Replicate 3 ([2]; listed as 1-(S, S)): 0.00% |
